Where a name gives a salt, the structure may show the parent alone.
Experiments:
[1] = target: T1, cloned human μ opioid receptor (Homo sapiens, UniProt P35372); assay: Receptor binding, [3H]diprenorphine displacement, mu opioid receptor; conditions: for Ki: MOR Ki, [3H]diprenorphine, cloned human mu opioid receptor
T1 construct: expressed in transfected cells

[2] = target: T2, cloned human δ opioid receptor (Homo sapiens, UniProt P41143); assay: Receptor binding, [3H]diprenorphine displacement, delta opioid receptor; conditions: DOR Ki
T2 construct: expressed in transfected cells
T2 sequence (P41143 whole entry): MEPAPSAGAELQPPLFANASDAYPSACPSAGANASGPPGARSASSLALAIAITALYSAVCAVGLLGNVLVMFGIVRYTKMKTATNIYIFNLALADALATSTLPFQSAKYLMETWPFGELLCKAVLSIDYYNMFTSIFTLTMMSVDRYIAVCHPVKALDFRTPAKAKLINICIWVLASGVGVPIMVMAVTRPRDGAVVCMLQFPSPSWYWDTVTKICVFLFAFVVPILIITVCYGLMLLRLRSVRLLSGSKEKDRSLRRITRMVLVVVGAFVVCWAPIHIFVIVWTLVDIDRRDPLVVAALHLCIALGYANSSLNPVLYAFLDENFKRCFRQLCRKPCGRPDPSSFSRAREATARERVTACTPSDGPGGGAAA

T1 sequence (P35372 whole entry): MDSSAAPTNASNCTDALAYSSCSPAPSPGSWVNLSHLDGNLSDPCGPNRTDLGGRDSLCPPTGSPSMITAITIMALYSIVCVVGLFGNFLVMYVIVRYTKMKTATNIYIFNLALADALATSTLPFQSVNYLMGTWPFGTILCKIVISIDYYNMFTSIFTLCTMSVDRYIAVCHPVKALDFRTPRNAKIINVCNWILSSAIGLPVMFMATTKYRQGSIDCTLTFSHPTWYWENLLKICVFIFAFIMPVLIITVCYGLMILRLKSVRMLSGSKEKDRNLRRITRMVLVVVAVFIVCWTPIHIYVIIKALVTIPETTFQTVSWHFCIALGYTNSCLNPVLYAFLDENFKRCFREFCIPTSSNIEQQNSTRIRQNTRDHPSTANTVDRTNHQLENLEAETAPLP

Row | SMILES | Ki [1] | DOR/MOR Ratio ([1]; ratio of DOR Ki to MOR Ki) | Ki [2]
1 | C[C@H]1CN(C[C@H](Cc2ccccc2)C(=O)O)CC[C@@]1(C)c1cccc(C(N)=O)c1 [Example 4, (S)-2-Benzyl-3-((3R,4R)-4-(3-carbamoylphenyl)-3,4-dimethylpiperidin-1-yl)propanoic acid] | 14 nM | 33 | 460 nM
2 | C[C@H]1CN(C[C@H](Cc2ccccc2)C(=O)O)CC[C@@]1(C)c1cccc(C(N)=O)c1 [Example 6, (S)-2-benzyl-3-((3R,4R)-4-(3-carbamoylphenyl)-3,4-dimethylpiperidin-1-yl)propanoic acid, succinic acid salt] | 18.1 nM |  | 527 nM
